Assay results as given in paper PMC4489612, “Unravelling the Evolution of the Allatostatin-Type A, KISS and Galanin Peptide-Receptor Gene Families in Bilaterians: Insights from Anopheles Mosquitoes” (PLoS ONE, 2015).
Ends that are not written are not given here.

What was measured:
galanin receptors (GALR) = details: vertebrates; cited from earlier work
Text: AST-A peptides activate specific G-protein coupled receptors (GPCRs), the insect allatostatin-A receptors (AST-ARs) that are considered orthologues of galanin receptors (GALR) in vertebrates. In vertebrates, GALRs have a close evolutionary relationship with kisspeptin receptors (KISSR) and are activated by galanin (GAL) and spexin (SPX), peptides that are unrelated to insect AST-As. AST-A peptide function is relatively well studied but the receptors have only been isolated in a few insect species and their evolution and function is unresolved. In t ...

GPRALS1 [1] = test: iCa^2+ release (Fluo-4 NW) in stable CHO cells expressing GPRALS1; assay type: cell-based, Anopheles coluzzii; details: 1 nM to 1 μM (BLAST-2 0.5 μM to 0.005 μM)
Description: (§1) The amplified insect receptors included the initiation and termination codons but were not cloned in frame with vector tag proteins. The recombinant constructs were used to transfect mammalian CHO cells that had been maintained in complete Dulbecco’s modified Eagle’s medium (DMEM, Sigma, Spain) containing 4.5 g/L glucose, 110 mg/L sodium pyruvate and L-glutamine and supplemented with 10% sterile foetal bovine serum and 0.1% penicillin: streptomycin antibiotic mix (10.000 U: 10 mg/ml, Sigma) and 250μg/ml sterile filtered amphotericin B solution (1:100 dilution, Sigma, Spain). One day prior to transfection, 2–3 x10^5 cells were seeded into 6 well plates (Sarstedt, Portugal) and transfected using Fugene 6 reagent (1: 6 DNA: Fugene, Roche, Germany) according to the manufacturer’s protocol. The efficiency and success of cell transfection was estimated by performing a simultaneous transfection with a plasmid encoding a fluorescent protein. 72 h after incubation, transformed cells were selected by supplementing medium with 800μg/ml of the antibiotic Geneticin (G418 sulphate, GibcoBRL, USA) and cell recovery was monitored daily and the medium changed until no cell death was observed. Establishment of AST-AR CHO stable cell lines were confirmed by PCR using receptor specific primers.
(§2) GPRALS1 and GPRALS2 stable CHO cell lines were stimulated with Ano_AST-A1 and Ano_AST-A2 peptides, the B. germanica BLAST-2 peptide and rat GAL and sea bass KISS peptides and iCa^2+ release and cAMP production were measured.
(§3) For iCa^2+ release (Relative Fluorescent Units, RFU) a Ca^2+ sensitive fluorescent dye Fluo-4 NW (Molecular Probes, Invitrogen) was used. Approximately 50,000 cells were assayed per well and the variation in fluorescence after addition of increasing peptide concentrations (1 nM to 1 μM, diluted in the assay buffer) was measured every 5s over a total of 2 min and fluorescence was excited using a 485/20 nm filter and captured with a 528/20 nm filter in a Biotek Synergy 4 plate reader (Biotek, USA). Background RFU of transfected cells was measured prior to peptide stimulation. The controls consisted of transfected cells exposed to carbachol (100 nM; Sigma, Spain) and non-transfected CHO cells stimulated with 1 μM of each peptide (negative control).
(§4) Quantitative expression data is presented as mean ± SEM of cDNA from 3 independent experiments analysed in duplicate. Significant changes in transcript expression were assessed using a nonparametric Mann-Whitney two-tailed test. Receptor activation is presented as the mean ± SEM of three independent experiments carried out in triplicate and statistical significance was assessed using a Kruskal-Wallis test with Dunn’s Multiple Comparison Test. […]

GPRALS2 [2] = test: iCa^2+ release (Fluo-4 NW) in stable CHO cells expressing GPRALS2; assay type: cell-based, Anopheles coluzzii; details: 1 nM to 1 μM (BLAST-2 0.5 μM to 0.005 μM)
Description: as §1, §2, §3, §4

GPRALS1 [3] = test: cAMP production (competitive immunoassay) in stable CHO cells expressing GPRALS1; assay type: cell-based, Anopheles coluzzii; details: 1 x PBS/1 mM IBMX, 30 min at 37°C, cryptate labelled anti-cAMP antibody, triplicate on three occasions
Description: (§5) The amplified insect receptors included the initiation and termination codons but were not cloned in frame with vector tag proteins. The recombinant constructs were used to transfect mammalian CHO cells that had been maintained in complete Dulbecco’s modified Eagle’s medium (DMEM, Sigma, Spain) containing 4.5 g/L glucose, 110 mg/L sodium pyruvate and L-glutamine and supplemented with 10% sterile foetal bovine serum and 0.1% penicillin: streptomycin antibiotic mix (10.000 U: 10 mg/ml, Sigma) and 250μg/ml sterile filtered amphotericin B solution (1:100 dilution, Sigma, Spain). […] 72 h after incubation, transformed cells were selected by supplementing medium with 800μg/ml of the antibiotic Geneticin (G418 sulphate, GibcoBRL, USA) and cell recovery was monitored daily and the medium changed until no cell death was observed. […]
as §2
(§6) The amount of cAMP produced was determined using a competitive immunoassay with a cryptate labelled anti-cAMP antibody (Cisbio, France) and following the manufactures protocol. […]
(§7) Quantitative expression data is presented as mean ± SEM of cDNA from 3 independent experiments analysed in duplicate. […]

GPRALS2 [4] = test: cAMP production (competitive immunoassay) in stable CHO cells expressing GPRALS2; assay type: cell-based, Anopheles coluzzii; details: 1 x PBS/1 mM IBMX, 30 min at 37°C, cryptate labelled anti-cAMP antibody, triplicate on three occasions
Description: as §5, §2, §6, §7

DAR-1 = details: D. melanogaster DAR-1; cited from earlier work
DAR-2 = details: D. melanogaster DAR-2; cited from earlier work

Substance | GALR activation (galanin receptors (GALR)) | receptor activation, iCa^2+ signalling (GPRALS1 [1]) | receptor activation, iCa^2+ signalling (GPRALS2 [2]) | other results
galanin (GAL): galanin (GAL), peptide activating vertebrate galanin receptors | activated | – | – | –
spexin (SPX): spexin (SPX), peptide activating vertebrate galanin receptors | activated | – | – | –
DRLYSFGL-NH2 [BLAST-2, German cockroach Blattella germanica BLAST-2 peptide (DRLYSFGL-NH2)] | – | activated | activated | intracellular cAMP (GPRALS1 [3]): None of the insect peptides induced increased intracellular cAMP; intracellular cAMP (GPRALS2 [4]): None of the insect peptides induced increased intracellular cAMP; iCa^2+ mobilization (DAR-1): stimulates iCa^2+ mobilization; iCa^2+ mobilization (DAR-2): stimulates iCa^2+ mobilization
rat 1–29 GAL: 1–29 rat galanin (Sigma-Aldrich, Spain) (GWTLNSAGYLLGPHAIDNHRSFSDKHGLT; ends and bridges not checked; UniProt P10683 33-61, looked up) | – | failed to activate | failed to activate | –
FNFNPFGLRF-NH2 [KISS 2–10, vertebrate KISS peptide, sea bass KISS 2–10 ([…]-NH2)] | – | failed to activate | failed to activate | –
YNLNSFGLRY-NH2 [KISS 1–10, vertebrate KISS peptide, sea bass KISS 1–10 ([…]-NH2)] | – | failed to activate | failed to activate | –
